Assay results from ChEMBL document CHEMBL1150093, “Santolindiacetylene, a polyacetylene derivative isolated from the essential oil of Santolina canescens” (J Nat Prod, 1995).
In brackets after ≈: the same amount, converted by molar mass.

Legend:
[1] = tested on: Radical scavenging activity; assay: Antioxidant activity assessed as DPPH radical scavenging activity; type: functional
[2] = tested on: Rattus norvegicus; assay: Antihepatotoxic activity against carbon tetrachloride-induced hepatotoxicity in Wistar rat assessed as decrease in serum glutamate pyruvate transaminase level at 7 mg/kg, ip administered 24 hrs before carbon tetrachloride intoxication; type: functional; conditions: route intraperitoneal
[3] = tested on: Rattus norvegicus; assay: Antihepatotoxic activity against carbon tetrachloride-induced hepatotoxicity in Wistar rat liver assessed as decrease in serum glutamate pyruvate transaminase level at 7 mg/kg, ip administered 24 hrs before carbon tetrachloride intoxication relative to control; type: functional; design: scale not given: the % may be the effect or the level left; conditions: route intraperitoneal
[4] = tested on: Rattus norvegicus; assay: Antihepatotoxic activity against carbon tetrachloride-induced hepatotoxicity in Wistar rat liver assessed as decrease in hepatic malondialdehyde level at 7 mg/kg, ip administered 24 hrs before carbon tetrachloride intoxication; type: functional; conditions: route intraperitoneal
[5] = tested on: Rattus norvegicus; assay: Antihepatotoxic activity against carbon tetrachloride-induced -induced hepatotoxicity in Wistar rat liver assessed as decrease in hepatic malondialdehyde level at 7 mg/kg, ip administered 24 hrs before carbon tetrachloride intoxication relative to control; type: functional; design: scale not given: the % may be the effect or the level left; conditions: route intraperitoneal
[6] = tested on: Rattus norvegicus; assay: Antihepatotoxic activity against carbon tetrachloride-induced hepatotoxicity in Wistar rat liver assessed as decrease in serum glutamate pyruvate transaminase level at 35 mg/kg, ip administered 24 hrs before carbon tetrachloride intoxication; type: functional, organism-based; design: dose 35 mg/kg
[7] = tested on: Rattus norvegicus; assay: Antihepatotoxic activity against carbon tetrachloride-induced hepatotoxicity in Wistar rat liver assessed as decrease in serum glutamate pyruvate transaminase level at 35 mg/kg, ip administered 24 hrs before carbon tetrachloride intoxication relative to control; type: functional, organism-based; design: dose 35 mg/kg; scale not given: the % may be the effect or the level left
[8] = tested on: Rattus norvegicus; assay: Antihepatotoxic activity against carbon tetrachloride-induced hepatotoxicity in Wistar rat liver assessed as decrease in hepatic malondialdehyde level at 35 mg/kg, ip administered 24 hrs before carbon tetrachloride intoxication; type: functional, organism-based; design: dose 35 mg/kg
[9] = tested on: Rattus norvegicus; assay: Antihepatotoxic activity against carbon tetrachloride-induced hepatotoxicity in Wistar rat liver assessed as decrease in hepatic malondialdehyde level at 35 mg/kg, ip administered 24 hrs before carbon tetrachloride intoxication relative to control; type: functional, organism-based; design: dose 35 mg/kg; scale not given: the % may be the effect or the level left

Molecule | EC50 [1] | other results
O=C1O[C@H]([C@@H](O)CO)C(O)=C1O |  | Activity [1]: 2.7 µg/mL
CC1=CCC2CC1C2(C)C (stereo not drawn) [ALPHA-PINENE] | 330.6 mg/mL (≈ 2430 mM) | 
CC1=CC[C@@H](C(C)(C)O)CC1 [ALPHA-TERPINEOL] | 0.1463 mg/mL (≈ 0.948 mM) | 
CC1(C)C2CCC1(C)C(O)C2 (centres undefined) [BORNEOL] | 2.4 mg/mL (≈ 15.6 mM) | 
CC12CCC(CC1=O)C2(C)C (centres undefined) [CAMPHOR] | 2.4 mg/mL (≈ 15.8 mM) | 
C=C(C)C1CC=C(C)C(=O)C1 (centres undefined) [CARVONE] | 11.7 mg/mL (≈ 77.9 mM) | 
C=CC(=C)CCC=C(C)C [MYRCENE] | 248 mg/mL (≈ 1820 mM) | 
Cc1ccc(C(C)C)cc1 [P-CYMENE] | 408 mg/mL (≈ 3040 mM) | 
CC#CC#CCc1ccc2ccccc2c1 [SANTOLINDIACETYLENE] |  | Activity [1]: 1.7 µg/mL; Activity [2]: 23.3 IU/L; Activity [3]: 19.8%; Activity [4]: 0.182 nmol/mL; Activity [5]: 33.3%
SILYMARIN |  | Activity [1]: 24.6 µg/mL; Activity [6]: 27.9 IU/L; Activity [7]: 23.7%; Activity [8]: 0.2 nmol/mL; Activity [9]: 36.6%

Continued, in another order:

EC50 [1] | Molecule | other results
127.7 mg/mL (≈ 937 mM) | C=C1C=CC(C(C)C)CC1 (stereo not drawn) [BETA-PHELLANDRENE] | 
220.1 mg/mL (≈ 1620 mM) | C=C1CCC2CC1C2(C)C (stereo not drawn) [BETA-PINENE] | 
0.0037 mg/mL (≈ 0.0181 mM) | C=C1CC/C=C(/C)CC[C@@H]2[C@@H]1CC2(C)C [CARYOPHYLLENE] | 
22 mg/mL (≈ 161 mM) | CC1=CCC(C(C)C)=CC1 [GAMMA-TERPINENE] | 
232.7 mg/mL (≈ 1710 mM) | C=C1CCC2(C(C)C)CC12 (centres undefined) [SABINENE] | 
53.7 mg/mL (≈ 348 mM) | CC1=CCC(O)(C(C)C)CC1 (centres undefined) [TERPINEOL] | 
